The record followed here is ChEMBL document CHEMBL1129075, “Synthesis and binding activity of some pyrazolo[1,5-c]quinazolines as tools to verify an optional binding site of a benzodiazepine receptor ligand” (J Med Chem, 1996).

Structures are written as SMILES. pKi: −log10 of the molar value.

For one test, the system named is GABA-A receptor; anion channel. Kind of test: Displacement of [3H]flunitrazepam at GABA-A benzodiazepine receptor in rat brain cortical membranes (insoluble). Type of test: cell membranes, Membrane.
As for `Oc1nc2ccccc2c2cc(-c3nnco3)nn12`, the Ki result is given as “Insoluble”.

Another test deals with GABA-A receptor; anion channel. In words: Displacement of [3H]flunitrazepam at GABA-A benzodiazepine receptor in rat brain cortical membranes. Type of test: cell membranes, Membrane. A general note: Loss of bound radioactivity is the signal in a displacement assay; it reports binding, not function.
For `Oc1nc2ccccc2c2cc(-c3cccs3)nn12`, the negative-log Ki (pKi) was 8.13.

The molecule `O=C(O)c1cc2c3ccccc3nc(O)n2n1` gave a pKi below 5.00.

With `CCOC(=O)c1cc2c3ccccc3[nH]c(=O)n2n1`, the pKi is 7.55.

In turn, `CCOC(=O)c1cc2c3ccccc3nc(S)n2n1` gave a negative-log Ki (pKi) of 5.48. This pKi is 2.07 log units lower than that of the molecule before.

Consider `Oc1nc2ccccc2c2cc(-c3ccccc3)nn12`, for which the pKi was 7.23.

As to `c1ccc(-c2cc3c4ccccc4ncn3n2)cc1`, the negative-log Ki (pKi) was below 5.00.

Take `CCOC(=O)c1cc2c3ccccc3ncn2n1`: the pKi is below 5.00.

As to `Cc1nnc(-c2cc3c4ccccc4nc(O)n3n2)o1`, the pKi is 5.34.

Regarding `c1ccc(-c2cc3n(n2)CNc2ccccc2-3)cc1`, the pKi was 5.18.

Molecule `Oc1nc2ccccc2c2cc(-c3ccccn3)nn12` had a pKi of 7.28.

`CCOC(=O)c1cc2c3cc(Cl)ccc3nc(O)n2n1` showed a pKi of 7.30. This pKi and that of the molecule before are within 0.2 log units of each other.

As for `Cn1c(=O)n2nc(-c3ccccc3)cc2c2ccccc21`, the pKi was below 5.00.

As to `Oc1nc2ccccc2c2cc(-c3ccco3)nn12`, the pKi was 7.80.

For the molecule `Oc1nc2ccccc2c2cc(-c3ccc(Cl)cc3)nn12`, the pKi was 5.28.

The molecule `Oc1nc2ccc(Cl)cc2c2cc(-c3ccco3)nn12` had a pKi of 7.39.

In turn, `CCOC(=O)c1cc2c3ccccc3n(CC)c(=O)n2n1` showed a pKi below 5.00.

In the case of `CCOC(=O)c1cc2c3ccccc3n(C)c(=O)n2n1`, the negative logarithm of the Ki (pKi) is below 5.00.

Molecule `CCOC(=O)c1cc2c(cn1)[nH]c1ccccc12` had a pKi of 8.35.

Molecule `COC(=O)c1cc2c3ccccc3[nH]c(=O)n2n1` had a pKi of 7.66. This pKi lies 0.69 log units lower than the previous one.

With `O=C(Oc1ccccc1)c1cc2c3ccccc3nc(O)n2n1`, the pKi is 5.50.

Molecule `Oc1nc2ccc(Cl)cc2c2cc(-c3ccccc3)nn12` had a pKi of 6.98.

Consider `Sc1nc2ccccc2c2cc(-c3ccccc3)nn12`, for which the negative logarithm of the Ki (pKi) was below 5.00.

On to `CCOC(=O)c1cc2n(n1)CNc1ccccc1-2`, for which the pKi was 7.15.

Consider `CC(C)OC(=O)c1cc2c3ccccc3nc(O)n2n1`, for which the pKi was 6.36.

As usually defined, the pKi is the Ki on a negative log10 scale, so that one unit is a factor of ten.
